The record followed here is US7576225B2, “6R-(3,6-dideoxy-L-arabino-hexopyranosyloxy) heptanoic acid, preparation process for the same and dauer effect thereof” (KDR Biotech. Co. Ltd., priority 2004, dated 2009).

The experiment deals with C. elegance. In words: Measurement of dauer formation effect activity. The class given is in vivo, Caenorhabditis elegance. The method, then: Next, dauer formation effect of the compound of 6R-(3,6-dideoxy-L-arabino-hexopyranosyloxy)heptanoic acid (I), which is synthesized according to the present process of the invention, is measured using C. elegance.
That is, the dauer formation effect of the synthetic pheromone is measured using C. elegance tinder different feed, temperature and crowd density conditions from each other.
Although it should be passed from an L2 first half step or L3 second half step to an adult step in a condition where the feed and temperature (15-25° C.) are proper and the crowd density is low, when the synthetic pheromone is mixed, the step goes to dauer larva stage.
For comparison, seven C. elegances in the dauer larva and one C. elegance in the adult step are comparatively observed. […] In Picture 1, it can be noted that the C. elegance is not grown without moving.
To identify the dauer formation effect of the inventive pheromone, an activity is measured after the pheromone compound is supplied to S. basal agar culture medium without peptone (Vowels and Thomas, Genetics 130: 105-123, 1992).
The dauer formation effect activity of the inventive compound with respect to C. elegance is shown as Table 3.

The compound `C[C@H](CCCCC(=O)O)O[C@@H]1O[C@@H](C)[C@H](O)C[C@H]1O` [synthetic pheromone, 6R-(3,6-dideoxy-L-arabino-hexopyranosyloxy)heptanoic acid] came in with a dauer formation effect (320 μg/plate of the synthetic pheromone, C. elegance) of 100%. The “dauer formation effect (observation of larvae)” value (synthetic pheromone mixed in, proper feed and temperature (15-25° C.), low crowd density) is recorded as “greatly affects the dauer formation effect”.
